Laboratory results reported in patent publication US10683486B2, “Methods for producing hepatocytes” (BioLamina AB, priority 2015, dated 2020).
Read-outs that look alike come from different tables or passages of the source.

Test system: stem cell derived hepatocytes
Assay: Hepatocyte function with Cameron and Avior procedures on laminin-221/laminin-521 substrates (Example 3)
Format: cell-based, human
Source text: Stem-cell derived hepatocytes were produced from human embryonic stem cells on three different substrates. The first substrate was pure laminin-521 (LN-521). The second substrate was a mix of laminin-521 and laminin-221 in a weight ratio of 1:3 (221 (1:3)). The third substrate was a mix of laminin-221 and laminin-521 in a weight ratio of 1:1 (221 (1:1)). The Cameron procedure and the Avior procedure were compared to each other.
FIG. 13 is a set of two bar graphs showing hepatocyte function of the two procedures. […] Such benefits were not observed using both MK4 and LCA.

## C[C@H](CCC(=O)O)[C@H]1CC[C@H]2[C@@H]3CC[C@@H]4C[C@H](O)CC[C@]4(C)[C@H]3CC[C@]12C [LCA, lithocholic acid]
Avior procedure, LCA and MK4 together, cell death at day 18
  toxic effects on stem cell derived hepatocytes: major toxic effects

## CC(C)=CCC/C(C)=C/CC/C(C)=C/CC/C(C)=C/CC1=C(C)C(=O)c2ccccc2C1=O [MK4, vitamin K (MK4)]
  toxic effects on stem cell derived hepatocytes: major toxic effects
